Earlier results, collected in patent publication US20120316134A1, “ANAESTHETIC COMPOSITION” (JUROX PTY. LTD., priority 2000, published 2012).

Settings: in vivo

CC(=O)OCC(=O)[C@H]1CC[C@H]2[C@@H]3CC[C@H]4C[C@H](O)CC[C@]4(C)[C@H]3C(=O)C[C@]12C [alfadolone acetate, 21-acetoxy-3 α-hydroxy-5α-pregnane-11,20-dione]
Anaesthetic potency relative to alfaxalone: half as potent
